One data set concerns NCI-H1417 cells. The data set is described as follows: Experiment 2: inhibition of NCI-H1417 cell proliferation (CellTiter-Glo, 10 days). The settings on record: Homo sapiens, 240 h, 10 days incubation. Format: cell-based. Summed up:
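Cells at 1000 per well exposed to 10-point 3-fold dilutions from 10 μM top concentration for 10 days. Viability by CellTiter-Glo luminescence; inhibition normalized to max/min controls, IC50 from four-parameter fit.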

Data set [1] is described as follows: Experiment 3: pharmacokinetic evaluation in CD-1 mice (IV and oral). Format: in vivo. The following applies: mouse, plasma, male CD-1 mice; for clearance / half-life / Vd: IV 1 mg/kg; for clearance: read-out: Clearance rate CL; for half-life: read-out: Half life T1/2 (IV, h) (converted); for Vd: read-out: Volume of distribution at steady state Vdss; for bioavailability: PO 2 mg/kg vs IV 1 mg/kg, read-out: Bioavailability F (%); for AUC(0-t): PO 2 mg/kg, read-out: Area under drug-time curve AUC0-last PO; for Cmax: single dose, oral 2 mg/kg, read-out: Peak concentration Cmax. Summed up: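 Male/female CD-1 mice aged 7-9 weeks, two per route, received single doses of 1 mg/kg IV or 2 mg/kg oral gavage in 10% DMSO/90% of 10% HP-β-cyclodextrin. Plasma was sampled from 0.083 (IV) or 0.25 (PO) to 24 h. Methanol-precipitated samples were measured by LC-MS/MS to derive Cmax, CL, T1/2, Vdss, AUC0-last and F.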

Data set [2] concerns the target hERG potassium ion channels (Homo sapiens (Human), UniProt Q12809). Briefly: Experiment 4: hERG potassium ion channel inhibition, automated patch clamp (Qpatch), CHO-hERG cells. The data set is classed as cell-based. The following applies: highest test concentration 40 μM. As to the method: Experiment 4: hERG Potassium Ion Channel Inhibition Assay
Experimental purpose: To test the effects of the test examples on hERG potassium ion channels using an automated patch clamp method.
4.1.1 CHO-hERG cells were cultured in a 175 cm^2 culture flask. When the cell density grew from 60% to 80%, the culture medium was removed. The cells were washed once with 7 mL of PBS (Phosphate Buffered Saline), and then 3 mL of Detachin cell dissociation reagent was added thereto for digestion.
4.1.2 After the digestion was completed, 7 mL of culture medium was added thereto for neutralization, then the mixture was centrifuged, the supernatant was aspirated, and then 5 mL of culture medium was added thereto for resuspension to ensure a cell density of 2×10^6/mL to 5×10^6/ML.
The single-cell high-resistance sealing and whole-cell modeling formation processes were all automatically completed by the Qpatch instrument of the Shanghai Institute of Materia Medica, Chinese Academy of Sciences. After obtaining the whole-cell recording modeling, the cells were clamped at −80 mV, and before a 5-second +40 mV depolarizing stimulus was given, a 50-millisecond −50 mV prepulse was first given, then the voltage was repolarized to −50 mV and holden for 5 seconds, and finally returned to −80 mV. This voltage stimulus was applied every 15 seconds, recorded for 2 minutes, and then the extracellular fluid was recorded for 5 minutes, and then the administration process was initiated, with compound concentrations starting at the lowest test concentration. The voltage stimulus was given for 2.5 minutes for each test concentration, and after all concentrations had been continuously given, 3 μM the positive control compound, Cisapride, was given. At least 3 cells were tested per concentration (n≥3).
4.4.1 The compound stock solution was diluted with DMSO, and 20 μL of DMSO solution was added with 10 μL of the compound stock solution, and serially diluted 3-fold to 6 DMSO concentrations.
4.4.2 4 μL of 6 DMSO concentrations of compounds were taken respectively and added to 396 μL of extracellular fluid, and the mixture was diluted 100-fold to 6 intermediate concentrations, then 80 μL of 6 intermediate concentrations of compounds was taken and added to 320 μL of extracellular fluid, and the mixture was diluted 5-fold to the final test concentration.
4.4.3 The highest test concentration was 40 μM, and the concentrations were respectively 40, 13.3, 4.4, 1.48, 0.494, and 0.165 μM for a total of six concentrations.
4.4.5 The preparation of the compound was completed by the Bravo instrument throughout the dilution process.
Experimental data were analyzed by GraphPad Prism 5.0 software.

Where a name gives a salt, the structure may show the parent alone.

Chain of hERG potassium ion channels (Q12809 whole entry): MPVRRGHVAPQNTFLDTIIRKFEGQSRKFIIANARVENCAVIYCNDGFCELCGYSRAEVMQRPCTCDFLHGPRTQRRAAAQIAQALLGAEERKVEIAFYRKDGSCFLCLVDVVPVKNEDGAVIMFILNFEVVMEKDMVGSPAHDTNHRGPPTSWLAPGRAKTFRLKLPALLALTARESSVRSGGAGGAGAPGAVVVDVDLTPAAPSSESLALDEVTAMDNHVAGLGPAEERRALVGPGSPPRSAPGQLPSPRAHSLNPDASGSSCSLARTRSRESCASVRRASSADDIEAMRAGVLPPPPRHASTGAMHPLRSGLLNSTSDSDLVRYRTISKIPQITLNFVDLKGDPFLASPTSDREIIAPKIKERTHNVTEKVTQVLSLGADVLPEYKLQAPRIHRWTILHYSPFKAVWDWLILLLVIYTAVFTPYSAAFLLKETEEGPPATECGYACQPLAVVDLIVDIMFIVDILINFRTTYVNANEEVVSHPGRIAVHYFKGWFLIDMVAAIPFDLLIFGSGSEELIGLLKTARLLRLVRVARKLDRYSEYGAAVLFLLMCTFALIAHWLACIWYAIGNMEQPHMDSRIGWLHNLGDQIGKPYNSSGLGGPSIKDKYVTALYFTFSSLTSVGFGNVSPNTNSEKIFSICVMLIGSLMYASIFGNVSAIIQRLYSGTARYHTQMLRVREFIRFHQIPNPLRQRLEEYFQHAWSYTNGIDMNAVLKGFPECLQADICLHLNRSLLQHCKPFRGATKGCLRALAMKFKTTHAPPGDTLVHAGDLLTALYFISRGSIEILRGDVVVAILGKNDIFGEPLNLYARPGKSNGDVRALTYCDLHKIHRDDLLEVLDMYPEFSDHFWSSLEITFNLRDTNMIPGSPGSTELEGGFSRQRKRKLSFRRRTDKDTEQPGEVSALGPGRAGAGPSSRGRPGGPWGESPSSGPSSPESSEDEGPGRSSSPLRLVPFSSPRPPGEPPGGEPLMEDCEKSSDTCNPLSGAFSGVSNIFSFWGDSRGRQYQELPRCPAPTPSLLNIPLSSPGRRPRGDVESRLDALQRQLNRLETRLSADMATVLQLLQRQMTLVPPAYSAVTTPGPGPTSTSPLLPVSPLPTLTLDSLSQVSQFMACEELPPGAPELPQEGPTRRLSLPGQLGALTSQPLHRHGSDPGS

As for `CC(C)(CO)n1cc2cc(-c3sc(C(=O)N4CCC[C@@H](N)C4)cc3-c3ccc(C#N)c(F)c3)ccc2n1` [Hydrochloride of compound 87], the IC50 with NCI-H1417 cells was determined as 5.11 nM. In data set [1], the clearance was 25.7 mL/min/kg, the half-life was 1.54 h, the Vd was determined as 3.13 L/kg and the bioavailability came to 41.1%. In data set [1], the AUC(0-t) turned out to be 1.01 µM·h and the Cmax is 267 nM. The IC50 in data set [2] is 13.4 µM.
In the data set on NCI-H1417 cells, `CN[C@@H]1CCCN(C(=O)c2cc(-c3ccc(C#N)c(F)c3)c(-c3cc4nnn(CC(C)(C)O)c4c(F)c3F)s2)C1` [Hydrochloride of compound 98] had an IC50 of 0.07 nM. Moreover, in data set [1], the clearance stood at 45.3 mL/min/kg, the half-life is 2.28 h, the Vd stood at 6.94 L/kg and the bioavailability was 58.6%. In data set [1], the AUC(0-t) is 0.708 µM·h and the Cmax amounted to 160 nM. For the same molecule, half-maximal inhibition in data set [2] (IC50) required 18.6 µM.
